Reference: article PMC10746280, “Bacterial efflux pump modulators prevent bacterial growth in macrophages and under broth conditions that mimic the host environment” (mBio, 2023)

Legend:
[1] = test system: S. Typhimurium SL1344 (sifB::gfp) in RAW 264.7 macrophages; experiment: SAFIRE macrophage assay: intracellular bacterial load (GFP signal within macrophages); assay type: cell-based, Salmonella enterica serotype Typhimurium; settings: 'Toxic' given instead of a score
How it was run: (§1)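 RAW 264.7 macrophages infected with S. Typhimurium SL1344 sifB::gfp (MOI ~30), gentamicin 40 µg/mL, then compound from 2 h to 18 h post-infection. Confocal imaging with MitoTracker and DAPI; toxicity as adherent MitoTracker-positive macrophage count, bacterial load as GFP+ macrophage area.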

[2] = test system: RAW 264.7 macrophages; experiment: SAFIRE macrophage assay: host toxicity (adherent macrophage count, morphology); assay type: cell-based
How it was run: as §1

Compound	5 uM Avg Antibacterial Score [1]	25 uM Avg Antibacterial Score [1]	5 uM Avg Cell # Score [2]	25 uM Avg Cell # Score [2]
OC(COc1cccc2[nH]ccc12)CN1CCC(Nc2nccc(C(F)(F)F)n2)CC1 (stereo not shown) [CU116]	90	6.41	99	94
OC(COc1ccc2cc[nH]c2c1)CN1CCC(Nc2nccc(C(F)(F)F)n2)CC1 (stereo not shown) [CU117]	3.65	Toxic	66	74
OC(COc1cnsn1)CN1CCC(Nc2nccc(C(F)(F)F)n2)CC1 (stereo not shown) [CU118]	102	80	89	124
OC(COc1cc(F)cc(Br)c1)CN1CCC(Nc2nccc(C(F)(F)F)n2)CC1 (stereo not shown) [CU119]	13	Toxic	72	50
OC(COc1ccc(Cl)cc1Br)CN1CCC(Nc2nccc(C(F)(F)F)n2)CC1 (stereo not shown) [CU120]	13	Toxic	74	46
OC(COc1ccc(Cl)cc1Cl)CN1CCC(NC2CC2)C1 (stereo not shown) [CU121]	73	11	89	89
CN(CC(O)COc1ccc(Cl)c(Cl)c1)C1CCOC1 (stereo not shown) [CU122]	102	81	81	74
CCN(CC(O)COc1ccc(Cl)c(Cl)c1)CC1CCOC1 (stereo not shown) [CU123]	98	28	85	84
OC(COc1ccc(Cl)c(Cl)c1)CN1CCC(F)(F)C1 (stereo not shown) [CU124]	102	85	80	71
OC(COc1ccc(Cl)c(Cl)c1)CN1CCC(F)C1 (stereo not shown) [CU125]	102	73	81	86
CO[C@H]1CCN(CC(O)COc2ccc(Cl)c(Cl)c2)C1 (stereo partly shown) [CU126]	99	47	81	86
CO[C@@H]1CCN(CC(O)COc2ccc(Cl)c(Cl)c2)C1 (stereo partly shown) [CU127]	97	46	92	85
COCC1CCCN1CC(O)COc1ccc(Cl)c(Cl)c1 (stereo not shown) [CU128]	98	32	85	85
OC(COc1ccc(Cl)c(Cl)c1)CN1CCC2(CCOCC2)C1 (stereo not shown) [CU129]	95	39	100	88
Cc1nnc(CN(C)CC(O)COc2ccc(Cl)c(Cl)c2)o1 (stereo not shown) [CU130]	98	85	100	73
Cc1noc(CN(C)CC(O)COc2ccc(Cl)c(Cl)c2)n1 (stereo not shown) [CU131]	101	86	88	80
OC(CNC1(c2ccccc2)CC1)COc1ccc(Cl)c(Cl)c1 (stereo not shown) [CU132]	102	Toxic	82	39
OC(CNCc1cccc2ccccc12)COc1ccc(Cl)c(Cl)c1 (stereo not shown) [CU133]	60	Toxic	84	92
OC(CNCc1ccc2c(c1)OC(F)(F)O2)COc1ccc(Cl)c(Cl)c1 (stereo not shown) [CU134]	61	Toxic	84	91
Cc1cc(CNCC(O)COc2ccc(Cl)c(Cl)c2)sc1C (stereo not shown) [CU135]	52	Toxic	75	103
OC(COc1ccc(Cl)c(Cl)c1)CN1Cc2ccccc2C1 (stereo not shown) [CU136]	102	60	83	63
O[C@H](COc1ccc(Cl)c(Cl)c1)CN1CCC(Nc2nccc(C(F)(F)F)n2)CC1 [CU137]	5.37	Toxic	91	67
